Here are results for three compounds from patent US20120058983A1, “Adenosine A1 agonists for the treatment of glaucoma and ocular hypertension” (BAYER PHARMA AKTIENGESELLSCHAFT, priority 2010, published 2012).

One data set deals with rabbits. The settings on record: rabbits (Lit. 6,7,8); cited from earlier work.
A further data set has as its system cynomolgus monkeys. The settings on record: cynomolgus monkeys (Lit. 9); cited from earlier work.
The test system of a further data set is Wistar rats. The data set is described as follows: IOP measurements in rats (topical administration to the eye; IOP and hemodynamic parameters). It counts as in vivo, rat. How it is done:
Wistar rats with a body weight of about 300 g were anesthetized with isoflurane (2-3% in O2:N2O=1:2). The test compounds were diluted in 0.9% sodium chloride and given by topical administration to the eye in 10 μl volume at a concentration of 10 mg/ml. IOP was measured with a rebound tonometer (TonoLab) at different time points after application of the drugs. Ocular pressure and effects of hemodynamic parameters can be monitored in this model.
N^6-Cyclopentyl-Adenosine and Example 1 reduce IOP at a volume of 10 μl (concentration 10 mg/ml).

In the case of `OC[C@H]1O[C@@H](n2cnc3c(NC4CCCCC4)ncnc32)[C@H](O)[C@@H]1O` [CHA, N6-cyclohexyl-adenosine], the intraocular pressure entry with rabbits and in the data set on cynomolgus monkeys was “lower intraocular pressure” in each case.

`OC[C@H]1O[C@@H](n2cnc3c(NC4CCCC4)ncnc32)[C@H](O)[C@@H]1O` [N^6-Cyclopentyl-Adenosine]: in the data set on Wistar rats (Wistar rats, 10 mg/ml (FIG. 2)), the “effects on mean arterial blood pressure / hemodynamic parameters” value was “significantly reduces blood pressure”. In the data set on Wistar rats (anesthetized Wistar rats, 10 μl volume, concentration 10 mg/ml, rebound tonometer (FIG. 1)), the IOP entry is “reduce IOP”.

Regarding `C[C@H](Cc1ccccc1)Nc1ncnc2c1ncn2[C@@H]1O[C@H](CO)[C@@H](O)[C@H]1O` [R-PIA, R(−)-N-6-(2-phenylisopropyl)adenosine], the intraocular pressure entry with rabbits and with cynomolgus monkeys was “lower intraocular pressure” throughout.
